# Read-outs that look alike come from different tables or passages of the source.
# Columns and labels:
# [1] = biological target: T1, recombinant human JAK1 kinase domain protein (Residues 854-1154) (Homo sapiens, UniProt P23458); test: JAK1 biochemical assay (LabChip mobility shift, Ki); details: read-out: Biochem JAK1 Ki
# T1 construct: human JAK1 kinase domain protein (Residues 854-1154); purchased Proteros Biostructures GmbH (Martinsried, Germany); host or cells: insect cells
# [2] = test system: IL-13-stimulated P-STAT6 in TF-1 human erythroleukemia cells; test: P-STAT6 TF-1 + IL-13 assay (JAK1 pathway); type: cell-based; details: Homo sapiens, TF-1, TF-1 cells, IL13 stimulation; read-out: Cellular JAK1 PSTAT6 TF-1 + IL13
# Experimental: (§1) TF-1 human erythroleukemia cells (ATCC′; Manassas, VA; Catalog No. CRL-2003™) were grown in Roswell Park Memorial Institute (RPMI) medium supplemented with 10% heat-inactivated fetal bovine serum (FBS), 2 ng/mL granulocyte-macrophage colony-stimulating factor, 1× non-essential amino acids (NEAA), and 1 mM sodium pyruvate. The day before the assay, the cultures were transferred to Opti-MEM™, 1×NEAA, 1 mM sodium pyruvate, and 0.5% charcoal-stripped FBS (starve medium). Inhibitor stock solutions (5 mM in DMSO) were serially diluted 1:2 in DMSO to generate a 10-point concentration titration (at 500× test concentration), which was further diluted by a 50-fold dilution in Assay Medium (RPMI containing 1×NEAA and 1 mM sodium pyruvate) to generate a 10× concentration titration (in 2% DMSO). The cells (300,000 cells/well in 35 μL of Assay Medium) were seeded in 384-well Greiner plates. Diluted inhibitor at 10× concentration (5 μL) was added to the cells and the plates were incubated for 30 minutes at 37° C. in a humidified incubator. Cells were stimulated with the human recombinant cytokine at the respective EC90 concentrations, as previously determined for each individual lot. For the phosphorylated signal transducer and activator of transcription 6 (P-STAT6) TF-1+Interleukin-13 (IL-13) assay, 10 μL of 250 ng/mL IL-13 (R&D Systems; Minneapolis, MN) was added to the cells, which were then incubated for 10 minutes at 37° C. For the P-STAT5 TF-1+Erythropoietin (EPO) assay, 10 μL of 110 IU/mL EPO (Gibco Life Technologies, Catalog No. PHC2054) was added to the cells, which were then incubated for […] at 37° C. For both assays, the incubation was followed by addition to the cells of 5 μL of ice-cold 10× cell lysis buffer (Cell Signaling Technologies; Danvers, MA; Catalog No. 9803S) containing 1 mM phenylmethylsulfonyl fluoride (PMSF). Assay plates were frozen at −80° C. for a minimum of 1 hour. In the IL-13 assay, P-STAT6 was measured by coating goat anti-rabbit (GAR) plates (Meso Scale Discovery [MSD]; Rockville, MD; Catalog No. MSD L21RA-1) with rabbit anti-human total STAT6 antibody (Cell Signaling Technologies; Catalog No. 9362S), incubating the cell lysates in the coated plates overnight at 4° C., and then detecting with mouse anti-P-STAT6 (Tyr641) Clone 16E12 antibody (MilliporeSigma; Burlington, MA; Catalog No. 05-590, custom labeled by MSD with SULFO-tag) using standard MSD plate processing, washing, and detection protocols. In the EPO assay, P-STAT5 was detected using the phospho-STAT5a,b Whole Cell Lysate Kit (MSD; Catalog No. K150IGD-1). The electrochemiluminescence (ECL) signal of wells was read on the MESO SECTOR 5600 (MSD) reader.
# (§2) Data analysis was performed by subtracting the negative control (cytokine stimulated and 20 μM control inhibitor-treated cells) mean ECL value from the ECL value of all wells, determining percent of control for test compound well ECL values relative to the positive control (cytokine stimulated and DMSO-treated cells) mean ECL value, and determining the IC50 for test compounds with a four-parameter logistic fit model as shown in Equation 4.
# [3] = test system: EPO-stimulated P-STAT5 in TF-1 human erythroleukemia cells; test: P-STAT5 TF-1 + EPO assay (JAK2 pathway); type: cell-based; details: Homo sapiens, TF-1, TF-1 cells, EPO stimulation; read-out: Cellular JAK2 PSTAT5 TF-1 + EPO
# Experimental: as §1, §2
# [4] = test system: IL-13-stimulated STAT6 phosphorylation in human lung bronchial epithelial BEAS-2B cell line; test: P-STAT6 BEAS-2B + IL-13 cell assay; type: cell-based; details: BEAS2B cells, IL13 stimulation, read-out: Cellular JAK1 PSTAT6 BEAS2B + IL13
# Summary of the method: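 BEAS-2B cells grown 48 h at 37 °C, pre-treated 1 h with compound (10-point 1:2 dilution curve), then stimulated 15 min with human recombinant IL-13 (250 ng/mL stock). Lysate P-STAT6 (Tyr641) read by MSD sandwich ELISA with total-STAT6 capture; IC50 from four-parameter logistic fit of control-normalised data.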
# [5] = biological target: Recombinant human JAK2 kinase domain protein (Residues 812-1132) (Homo sapiens, UniProt O60674); test: JAK2 biochemical assay (LabChip mobility shift, Ki); details: Biochem JAK2 Ki
# Sequence of Recombinant human JAK2 kinase domain protein (Residues 812-1132) (O60674 812-1132): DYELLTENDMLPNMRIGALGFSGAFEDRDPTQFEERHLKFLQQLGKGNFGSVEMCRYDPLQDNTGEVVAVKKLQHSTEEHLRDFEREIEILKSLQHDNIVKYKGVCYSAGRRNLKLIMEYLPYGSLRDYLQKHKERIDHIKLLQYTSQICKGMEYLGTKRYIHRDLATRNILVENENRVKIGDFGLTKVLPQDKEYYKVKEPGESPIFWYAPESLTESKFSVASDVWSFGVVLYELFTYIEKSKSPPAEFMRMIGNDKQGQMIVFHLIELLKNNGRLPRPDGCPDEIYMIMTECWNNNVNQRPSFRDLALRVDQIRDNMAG
# Experimental: The in vitro biochemical assays quantify JAK-catalyzed phosphorylation of a synthetic peptide, as detected using a LabChip® EZ Reader II microfluidic mobility shift instrument (PerkinElmer; Waltham, MA). […] Y-1B is fluorescently labeled on the N-terminus with 5-FAM (5-carboxyfluorescein) and contains a single tyrosine residue (Y) that can be phosphorylated by JAK activity. The substrate peptide stock is prepared in DMSO at 5 mM. […] In each titration experiment, test compound was tested in duplicate at each of the twelve concentrations. Blank reactions contained ATP, peptide, and DMSO, but no JAK or test compound, whereas uninhibited control reactions contained ATP, peptide, JAK, and DMSO, but no test compound.
# Peptide plus ATP mixture (24 μL) was added to 1 μL of test compound in DMSO (or DMSO alone). The reactions were initiated by adding 25 μL of JAK enzyme to the inhibitor/peptide/ATP mixture before thoroughly mixing the resultant solution. Reactions were incubated at room temperature (22° C.-23° C.) in a final volume of 50 μL per well in 384-well plates. After a 30-minute incubation, the reactions were stopped by adding 25 μL of 150 mM ethylenediaminetetraacetic acid in 100 mM HEPES buffer (pH 7.2) containing 0.015% Brij 35 to each well.
# In each reaction, the residual Y-1B substrate and the phospho-peptide product generated were separated using the EZ Reader II instrument. Electrophoretic separation of molecules of product from molecules of substrate was achieved using downstream and upstream voltages of −500 and −2600 V, respectively, at an operating pressure of −1.3 psi.
# The extent (or percent) of conversion of substrate to product was calculated from the corresponding peak heights in the electropherogram using HTS Well Analyzer software, Version 5.2 (PerkinElmer), and the following equation (Equation 1): conversion=[P÷(S+P)]×100 Equation 1% where S and P represent the peak heights of the substrate and product, respectively. After any baseline signal from blank wells containing no JAK was subtracted from the signal of all test wells, the % conversion data were converted to fractional activity as shown in Equation 2, where vi and vo are the % conversion in the presence and absence of test compound, respectively.
# T1 sequence (P23458 854-1154): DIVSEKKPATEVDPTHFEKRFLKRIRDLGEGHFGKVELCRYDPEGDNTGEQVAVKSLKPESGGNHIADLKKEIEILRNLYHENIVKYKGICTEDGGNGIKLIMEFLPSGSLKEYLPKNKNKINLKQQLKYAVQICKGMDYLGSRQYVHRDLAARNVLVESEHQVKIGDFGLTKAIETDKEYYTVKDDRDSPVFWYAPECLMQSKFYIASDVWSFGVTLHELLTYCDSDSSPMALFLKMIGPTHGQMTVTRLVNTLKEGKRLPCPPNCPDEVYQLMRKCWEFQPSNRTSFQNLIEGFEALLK
Compound,Ki [1],IC50 [2],IC50 [3],"IC50 ([4]; Homo sapiens, BEAS-2B)",Ki [5],IC50 [4]
"CC(O)Cn1cc(Oc2ccc(OC(F)F)c(-c3nn(C)cc3NC(=O)c3cnn4cccnc34)c2)cn1 (racemic) [Example 121, N-[3-[2-(difluoromethoxy)-5-[1-[rac-(2S)-2-hydroxypropyl]pyrazol-4-yl]oxy-phenyl]-1-methyl-pyrazol-4-yl]pyrazolo[1,5-a]pyrimidine-3-carboxamide]",0.28 nM,4 nM,4.9 nM,18 nM,0.18 nM,–
"CN1CCC(n2cc(Oc3ccc(OC(F)F)c(-c4nn(C)cc4NC(=O)c4cnn5cccnc45)c3)cn2)C1 (racemic) [Example 141, N-[3-[2-(difluoromethoxy)-5-[1-[rac-(3R)-1-methylpyrrolidin-3-yl]pyrazol-4-yl]oxy-phenyl]-1-methyl-pyrazol-4-yl]pyrazolo[1,5-a]pyrimidine-3-carboxamide]",1.6 nM,12 nM,33 nM,–,1.2 nM,46 nM
"Cn1cc(NC(=O)c2cnn3cccnc23)c(-c2cc(Oc3cnn([C@@H]4CNCC[C@H]4O)c3)ccc2OC(F)F)n1 (stereo in doubt) [Example 181, N-[3-[2-(difluoromethoxy)-5-[1-[rac-(3R,4R)-4-hydroxy-3-piperidyl]pyrazol-4-yl]oxy-phenyl]-1-methyl-pyrazol-4-yl]pyrazolo[1,5-a]pyrimidine-3-carboxamide]",0.29 nM,76 nM,160 nM,60 nM,0.23 nM,–
"CN1CC[C@H](O)[C@@H](n2cc(Oc3ccc(OC(F)F)c(-c4nn(C)cc4NC(=O)c4cnn5cccnc45)c3)cn2)C1 (stereo in doubt) [Example 184, N-[3-[2-(difluoromethoxy)-5-[1-[rac-(3S,4S)-4-hydroxy-l-methyl-3-piperidyl]pyrazol-4-yl]oxy-phenyl]-1-methyl-pyrazol-4-yl]pyrazolo[1,5-a]pyrimidine-3-carboxamide]",0.32 nM,12 nM,38 nM,47 nM,0.21 nM,–
"Cn1cc(NC(=O)c2cnn3cccnc23)c(-c2cc(Oc3cccnc3)ccc2OC(F)F)n1 [Example 2, N-[3-[2-(difluoromethoxy)-5-(3-pyridyloxy)phenyl]-1-methyl-pyrazol-4-yl]pyrazolo[1,5-a]pyrimidine-3-carboxamide]",0.32 nM,3.6 nM,11 nM,20 nM,0.19 nM,–
"Cc1ccc(Oc2ccc(OC(F)F)c(-c3nn(C)cc3NC(=O)c3cnn4cccnc34)c2)cc1C(=O)N(C)C [Example 49, N-[3-[2-(difluoromethoxy)-5-[3-(dimethylcarbamoyl)-4-methyl-phenoxy]phenyl]-1-methyl-pyrazol-4-yl]pyrazolo[1,5-a]pyrimidine-3-carboxamide]",0.44 nM,5.4 nM,8.6 nM,20 nM,0.28 nM,–
"Cn1cc(Oc2ccc(OC(F)F)c(-c3nn(C)cc3NC(=O)c3cnn4cccnc34)c2)cn1 [Example 59, N-[3-[2-(difluoromethoxy)-5-(1-methylpyrazol-4-yl)oxy-phenyl]-1-methyl-pyrazol-4-yl]pyrazolo[1,5-a]pyrimidine-3-carboxamide]",0.31 nM,4.6 nM,7.3 nM,13 nM,0.18 nM,–
"CCN1CCC(O)(Cn2cc(Oc3ccc(OC(F)F)c(-c4nn(C)cc4NC(=O)c4cnn5cccnc45)c3)cn2)CC1 [Example 212, N-[3-[2-(difluoromethoxy)-5-[1-[(1-ethyl-4-hydroxy-4-piperidyl)methyl]pyrazol-4-yl]oxy-phenyl]-1-methyl-pyrazol-4-yl]pyrazolo[1,5-a]pyrimidine-3-carboxamide]",0.84 nM,–,–,120 nM,0.6 nM,–

# Source: patent US12528812B2 (Genentech, Inc., priority 2020, dated 2026)
